Reference: article PMC4076524 (The Journal of General Physiology, 2014)
Positions count from the first letter of the chain named.

Assays:
[1] = molecular target: T1, MlotiK1 CNB domain V288S/A352D mutant (Mesorhizobium japonicum, UniProt Q98GN8, A352D/V288S); assay: 8-NBD cAMP fluorescence competition binding assay; design: species or system Mesorhizobium loti; settings: for coupling energy between V288S and A352D: double mutant cycle analysis of ligand binding
T1 sequence (Q98GN8 211-355 V288S/A352D limits assumed): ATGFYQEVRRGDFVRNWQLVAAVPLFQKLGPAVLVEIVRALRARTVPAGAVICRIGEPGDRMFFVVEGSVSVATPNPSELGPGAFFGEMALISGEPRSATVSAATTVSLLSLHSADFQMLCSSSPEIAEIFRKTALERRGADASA

[2] = molecular target: T2, MlotiK1 CNB domain T284S/V288S/A352D mutant (Mesorhizobium japonicum, UniProt Q98GN8, A352D/T284S/V288S); assay: 8-NBD cAMP fluorescence binding/competition assay; design: species or system Mesorhizobium loti; settings: for coupling energy for the combination of T284S with V288S/A352D: mutant cycle analysis of ligand binding
T2 sequence (Q98GN8 211-355 T284S/V288S/A352D limits assumed): T1 sequence (Q98GN8 211-355 V288S/A352D limits assumed) with T74S

[3] = molecular target: T284S/V288S/A352D MlotiK1 potassium channel (Mesorhizobium japonicum, UniProt Q98GN8, A352D/T284S/V288S); assay: 86Rb+ uptake assay in proteoliposomes; format: biochemical, Mesorhizobium loti; settings: Hill fit
[4] = system: olfactory CNG channel, threonine at C-terminal end of PBC mutated to alanine; settings: threonine to alanine mutant; ref Altenhofen et al., 1991; cited from earlier work
[5] = molecular target: MlotiK1 CNB domain wild type (Mesorhizobium japonicum, UniProt Q98GN8); assay: 8-NBD cAMP fluorescence binding/competition assay; design: species or system Mesorhizobium loti
[6] = molecular target: MlotiK1 CNB domain V282L mutant (Mesorhizobium japonicum, UniProt Q98GN8, V282L); assay: 8-NBD cAMP fluorescence competition binding assay; design: species or system Mesorhizobium loti
[7] = molecular target: MlotiK1 CNB domain T284N mutant (Mesorhizobium japonicum, UniProt Q98GN8, T284N); assay: 8-NBD cAMP fluorescence competition binding assay; design: species or system Mesorhizobium loti
[8] = molecular target: MlotiK1 CNB domain T284Q mutant (Mesorhizobium japonicum, UniProt Q98GN8, T284Q); assay: 8-NBD cAMP fluorescence competition binding assay; design: species or system Mesorhizobium loti
[9] = molecular target: MlotiK1 CNB domain T284S mutant (Mesorhizobium japonicum, UniProt Q98GN8, T284S); assay: 8-NBD cAMP fluorescence competition binding assay; design: species or system Mesorhizobium loti
[10] = molecular target: MlotiK1 CNB domain V288A mutant (Mesorhizobium japonicum, UniProt Q98GN8, V288A); assay: 8-NBD cAMP fluorescence competition binding assay; design: species or system Mesorhizobium loti
[11] = molecular target: MlotiK1 CNB domain V288L mutant (Mesorhizobium japonicum, UniProt Q98GN8, V288L); assay: 8-NBD cAMP fluorescence competition binding assay; design: species or system Mesorhizobium loti
[12] = molecular target: MlotiK1 CNB domain V288I mutant (Mesorhizobium japonicum, UniProt Q98GN8, V288I); assay: 8-NBD cAMP fluorescence competition binding assay; design: species or system Mesorhizobium loti
[13] = molecular target: MlotiK1 CNB domain V288S mutant (Mesorhizobium japonicum, UniProt Q98GN8, V288S); assay: 8-NBD cAMP fluorescence competition binding assay; design: species or system Mesorhizobium loti
[14] = molecular target: MlotiK1 CNB domain M299C mutant (Mesorhizobium japonicum, UniProt Q98GN8, M299C); assay: 8-NBD cAMP fluorescence competition binding assay; design: species or system Mesorhizobium loti
[15] = molecular target: MlotiK1 CNB domain M299Q mutant (Mesorhizobium japonicum, UniProt Q98GN8, M299Q); assay: 8-NBD cAMP fluorescence competition binding assay; design: species or system Mesorhizobium loti
[16] = molecular target: MlotiK1 CNB domain A352S mutant (Mesorhizobium japonicum, UniProt Q98GN8, A352S); assay: 8-NBD cAMP fluorescence competition binding assay; design: species or system Mesorhizobium loti; settings: competition with 50 nM 8-NBD cAMP, constant ligand, variable protein, room temperature, pH 7.5
[17] = molecular target: MlotiK1 CNB domain A352D mutant (Mesorhizobium japonicum, UniProt Q98GN8, A352D); assay: 8-NBD cAMP fluorescence competition binding assay; design: species or system Mesorhizobium loti
[18] = molecular target: MlotiK1 CNB domain R348A mutant (Mesorhizobium japonicum, UniProt Q98GN8, R348A); assay: 8-NBD cAMP fluorescence competition binding assay; design: species or system Mesorhizobium loti; settings: modified titration
[19] = molecular target: MlotiK1 CNB domain R348N mutant (Mesorhizobium japonicum, UniProt Q98GN8, R348N); assay: 8-NBD cAMP fluorescence competition binding assay; design: species or system Mesorhizobium loti; settings: affinities (Kd), range stated over R348N, R348Q and R348K for cAMP and cGMP
[20] = molecular target: MlotiK1 CNB domain R348Q mutant (Mesorhizobium japonicum, UniProt Q98GN8, R348Q); assay: 8-NBD cAMP fluorescence competition binding assay; design: species or system Mesorhizobium loti; settings: affinities (Kd), range stated over R348N, R348Q and R348K for cAMP and cGMP
[21] = molecular target: MlotiK1 CNB domain R348K mutant (Mesorhizobium japonicum, UniProt Q98GN8, R348K); assay: 8-NBD cAMP fluorescence competition binding assay; design: species or system Mesorhizobium loti; settings: affinities (Kd), range stated over R348N, R348Q and R348K for cAMP and cGMP
[22] = molecular target: MlotiK1 CNB domain R348Y mutant (Mesorhizobium japonicum, UniProt Q98GN8, R348Y); assay: 8-NBD cAMP fluorescence competition binding assay; design: species or system Mesorhizobium loti; settings: modified titration
[23] = molecular target: MlotiK1 CNB domain V288S/A352S mutant (Mesorhizobium japonicum, UniProt Q98GN8, A352S/V288S); assay: 8-NBD cAMP fluorescence competition binding assay; design: species or system Mesorhizobium loti
[24] = system: bovine rod photoreceptor CNG channel; settings: ref Altenhofen et al., 1991; cited from earlier work
[25] = system: bovine olfactory CNG channel; settings: ref Altenhofen et al., 1991; cited from earlier work
[26] = system: CNB β domain from the cGMP-dependent protein kinase I; settings: ref Huang et al., 2014; cited from earlier work

Sequence of T284S/V288S/A352D MlotiK1 potassium channel (Q98GN8 whole entry T284S/V288S/A352D): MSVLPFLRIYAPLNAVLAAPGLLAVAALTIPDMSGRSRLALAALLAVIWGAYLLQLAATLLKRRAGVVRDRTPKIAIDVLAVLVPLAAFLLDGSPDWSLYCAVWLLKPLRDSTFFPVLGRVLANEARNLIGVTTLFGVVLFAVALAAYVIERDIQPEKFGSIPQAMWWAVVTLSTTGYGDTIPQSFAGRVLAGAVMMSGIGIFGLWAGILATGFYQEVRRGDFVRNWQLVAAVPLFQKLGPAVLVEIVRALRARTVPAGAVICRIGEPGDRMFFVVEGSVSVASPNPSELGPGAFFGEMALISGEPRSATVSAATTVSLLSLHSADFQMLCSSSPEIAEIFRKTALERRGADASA
Sequence of MlotiK1 CNB domain V288S mutant (Q98GN8 211-355 V288S limits assumed): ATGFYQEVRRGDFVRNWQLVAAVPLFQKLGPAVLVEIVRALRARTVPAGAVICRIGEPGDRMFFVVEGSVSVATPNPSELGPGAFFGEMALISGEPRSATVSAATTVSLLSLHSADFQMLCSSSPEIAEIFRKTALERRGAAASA
Sequence of MlotiK1 CNB domain wild type (Q98GN8 211-355 limits assumed): as the sequence (Q98GN8 211-355 V288S limits assumed) above, with S78V counted along it
Sequence of MlotiK1 CNB domain V288A mutant (Q98GN8 211-355 V288A limits assumed): as the sequence (Q98GN8 211-355 V288S limits assumed) above, with S78A counted along it
Sequence of MlotiK1 CNB domain T284S mutant (Q98GN8 211-355 T284S limits assumed): as the sequence (Q98GN8 211-355 V288S limits assumed) above, with T74S, S78V counted along it
Sequence of MlotiK1 CNB domain A352D mutant (Q98GN8 211-355 A352D limits assumed): as the sequence (Q98GN8 211-355 V288S limits assumed) above, with S78V, A142D counted along it
Sequence of MlotiK1 CNB domain M299Q mutant (Q98GN8 211-355 M299Q limits assumed): as the sequence (Q98GN8 211-355 V288S limits assumed) above, with S78V, M89Q counted along it
Sequence of MlotiK1 CNB domain T284N mutant (Q98GN8 211-355 T284N limits assumed): as the sequence (Q98GN8 211-355 V288S limits assumed) above, with T74N, S78V counted along it
Sequence of MlotiK1 CNB domain R348A mutant (Q98GN8 211-355 R348A limits assumed): as the sequence (Q98GN8 211-355 V288S limits assumed) above, with S78V, R138A counted along it
Sequence of MlotiK1 CNB domain V288I mutant (Q98GN8 211-355 V288I limits assumed): as the sequence (Q98GN8 211-355 V288S limits assumed) above, with S78I counted along it
Sequence of MlotiK1 CNB domain A352S mutant (Q98GN8 211-355 A352S limits assumed): as the sequence (Q98GN8 211-355 V288S limits assumed) above, with S78V, A142S counted along it
Sequence of MlotiK1 CNB domain R348K mutant (Q98GN8 211-355 R348K limits assumed): as the sequence (Q98GN8 211-355 V288S limits assumed) above, with S78V, R138K counted along it
Sequence of MlotiK1 CNB domain V288S/A352S mutant (Q98GN8 211-355 V288S/A352S limits assumed): as the sequence (Q98GN8 211-355 V288S limits assumed) above, with A142S counted along it
Sequence of MlotiK1 CNB domain T284Q mutant (Q98GN8 211-355 T284Q limits assumed): as the sequence (Q98GN8 211-355 V288S limits assumed) above, with T74Q, S78V counted along it
Sequence of MlotiK1 CNB domain V282L mutant (Q98GN8 211-355 V282L limits assumed): as the sequence (Q98GN8 211-355 V288S limits assumed) above, with V72L, S78V counted along it
Sequence of MlotiK1 CNB domain R348N mutant (Q98GN8 211-355 R348N limits assumed): as the sequence (Q98GN8 211-355 V288S limits assumed) above, with S78V, R138N counted along it
Sequence of MlotiK1 CNB domain R348Y mutant (Q98GN8 211-355 R348Y limits assumed): as the sequence (Q98GN8 211-355 V288S limits assumed) above, with S78V, R138Y counted along it
Sequence of MlotiK1 CNB domain R348Q mutant (Q98GN8 211-355 R348Q limits assumed): as the sequence (Q98GN8 211-355 V288S limits assumed) above, with S78V, R138Q counted along it
Sequence of MlotiK1 CNB domain V288L mutant (Q98GN8 211-355 V288L limits assumed): as the sequence (Q98GN8 211-355 V288S limits assumed) above, with S78L counted along it
Sequence of MlotiK1 CNB domain M299C mutant (Q98GN8 211-355 M299C limits assumed): as the sequence (Q98GN8 211-355 V288S limits assumed) above, with S78V, M89C counted along it

Nc1ncnc2c1ncn2[C@@H]1O[C@@H]2COP(=O)(O)O[C@H]2[C@H]1O [cAMP]
coupling energy between V288S and A352D [1]: -0.78 ± 0.18 kcal/mol | coupling energy for the combination of T284S with V288S/A352D [2]: 0.14 ± 0.19 kcal/mol | Hill coefficient [3]: 0.84 | preference for cAMP [4]: 3.3 fold

Nc1nc2c(ncn2[C@@H]2O[C@@H]3COP(=O)(O)O[C@H]3[C@H]2O)c(=O)[nH]1 [cGMP]
Kd [5]: 1730 nM | Kd [6]: 8950 nM | Kd [7]: 6560 nM | Kd [8]: 6950 nM | Kd [9]: 2980 nM | Kd [10]: 2540 nM | Kd [11]: 996 ± 163 nM | Kd [12]: 797 ± 118 nM | Kd [13]: 2100 nM | change in ligand-binding energy by V288S alone ([13]; mutant cycle, relative to wild type): 0.12 ± 0.10 kcal/mol | Kd [14]: 2940 nM | Kd [15]: 11600 nM | Kd [16]: 727 ± 160 nM | Kd [17]: 850 ± 121 nM | Kd [18]: 39000 ± 2500 nM | Kd [19]: 16000 to 46000 nM | Kd [20]: 16000 to 46000 nM | Kd [21]: 16000 to 46000 nM | Kd [22]: 33000 ± 4800 nM | Kd [23]: 749 ± 75 nM | Kd [1]: 351 ± 95 nM | coupling energy between V288S and A352D [1]: -0.64 ± 0.20 kcal/mol | change in ligand-binding energy by V288S when combined with A352D ([1]; mutant cycle, relative to A352D): -0.52 ± 0.18 kcal/mol | Kd [2]: 336 ± 126 nM | coupling energy for the combination of T284S with V288S/A352D [2]: -0.34 ± 0.29 kcal/mol | Hill coefficient [3]: 1.3 | sensitivity to cGMP relative to cAMP (ratio of the K1/2 for channel activation) [24]: ~40 times | sensitivity to cGMP relative to cAMP (ratio of the K1/2 for channel activation) [25]: ~40 times | selectivity for cGMP over cAMP [26]: ~250 times

Nc1ncnc2c1nc(SCCNc1ccc([N+](=O)[O-])c3nonc13)n2[C@@H]1O[C@@H]2COP(=O)(O)O[C@H]2[C@H]1O [8-NBD cAMP]
Kd [5]: 171 ± 20 nM | Kd [2]: 2000 nM
